Measurements as given in patent publication US3991193A, “Derivatives of 4(3H)-quinazolone, pharmaceutical compositions thereof and methods of use” (Roussel-UCLAF, priority 1973, dated 1976).
Like-named read-outs stand apart in the source and are kept apart here.

Key:
[1] = Acute Toxicity Tests in mouse; details: in vivo
Procedure: 1. The activity of 2-methyl-3-(o-cyanophenyl)-4(3H)-quinazolone hydrochloride was investigated in the mouse by the following 5 tests.
Acute toxicities by p.o and i.p. routes were conducted using groups of ten mice at various dose levels. Groups dosed p.o. and i.p. were assessed for mortality at 24 hours.
The activity of methaqualone (2-methyl-3-(o-tolyl)-4-quinazolone) was investigated under the same conditions by using the test procedures indicated in the five tests above.

mouse [2] = experiment: Rotating Drum Test in Mouse; assay type: in vivo; details: 0.5 h, 30 min. after dosing, 2 min. test period, read-out: ED50 (dose causing 50% of the mice to fall off the drum)
Procedure: Groups of ten mice received p.o. or i.p. the test compound at various dose levels, a control group receiving the vehicle alone by each route .30 min. after dosing each group of mice was placed on a 30 cm diameter rotating drum revolving at 1 revolution/minute. The mice were placed on the drum against its direction of movement and the number of mice falling off within a 2 min. test period was noted. From the results obtained a dose response line was constructed and the dose causing 50% of the mice to fall off the drum (ED50) was estimated.

rat [3] = experiment: Righting Reflex Test in Rat; assay type: in vivo, Sprague-Dawley rat; details: for ED50: male Sprague-Dawley rat, read-out: ED50 (loss of righting reflex)
Procedure: Groups of ten male Sprague-Dawley rats received the test compound i.p. or p.o. at various doses. The animals dosed i.p. were assessed for loss of righting reflex immediately after dosing and those dosed p.o. were assessed at 1/4, 1/2, 1, 2, 4 and 6 hours after dosing.

mouse [4] = experiment: Righting Reflex Test in Mouse; assay type: in vivo; details: for ED50: at time of peak activity, read-out: ED50 (dose producing loss of righting reflex in 50% of a group of mice)
Procedure: Groups of ten mice received the test compound orally or i.p. at various dose levels, a control group receiving vehicle alone. All mice were housed individually in glass beakers and were assessed for loss of righting reflex at 1/4, 1/2, 1, 2, 4 and 6 hours after dosing. […] From the results obtained a dose response line was constructed and the dose producing 50% loss of righting reflex was estimated for each observation time. This ED50 value (the dose producing loss of righting reflex in 50% of a group of mice) was quoted for the time of peak activity.

rat [5] = experiment: Acute Toxicity Test in Rat
Procedure: (§1) II. The activity of 2-methyl-3-(o-cyanophenyl)-4(3H)-quinazolone hydrochloride was also investigated in rat by the following tests.
(§2) Groups of ten rats were dosed p.o. or i.p. with various doses of the test compound and after 24 hours were assessed for mortality.
(§3) The activity of Methaqualone was investigated in the same conditions.

[6] = Acute Toxicity Test in Rat; details: in vivo
Procedure: as §1, §2, §3

mouse [7] = experiment: Anticonvulsant Test Against Electroshock in Mouse; assay type: in vivo; details: 0.5 h, 30 min. after dosing, electroshock 55 mA, read-out: ED50 (dose protecting 50% of the mice from tonic extension of hind limbs)
Procedure: 3. Anticonvulsant Test Against Electroshock
Groups of ten mice received p.o. or i.p. the test compound at various dose levels, a control group received the vehicle alone. 30 min. after dosing, each group was then shocked via auricular electrodes using the electroshock apparatus (Ugo Basile ECT apparatus for small mammals) using the following parameters: […]
______________________________________
The number of mice which underwent tonic extension of hind limbs was noted. The dose protecting 50% of the mice (ED50) was estimated.

mouse [8] = experiment: Potentiation of Hexobarbitone Sleeping Time in Mouse; assay type: in vivo; details: i.p., Hexobarbitone Sodium 65 mg/kg i.v.
Procedure: 4. Potentiation of Hexobarbitone Sleeping Time
A group of eight control mice received a dose of 65 mg/kg Hexobarbitone Sodium i.v. and subsequent sleeping times were recorded. A time value equivalent to mean sleeping time plus two standard deviations was established as a cut-off point. Other groups of eight mice received in identical dose of Hexobarbitone Sodium and at half the means control sleeping time were given various doses of the test compound i.p. The number of mice in each group asleep at the cut-off was recorded. A dose response curve was constructed and the dose at which 50% of the mice remained asleep at this cut-off point (ED50) was estimated.

[9] = ip, i.p., assessed immediately after dosing
[10] = po, p.o., assessed 1/4 to 6 hours after dosing

SMILES	LD50 at 24 h ([1]; ip)	LD50 at 24 h ([1]; po)	ED50 (mouse [2]; ip, i.p.)	ED50 (mouse [2]; po, p.o.)	ED50 (rat [3]; [9])	ED50 (rat [3]; [10])	effectiveness compared with Methaqualone (rat [3]; rat)	ED50 (mouse [4]; ip)	oral hypnotic effectiveness (mouse [4]; oral)	ED50 (mouse [4]; po)	toxicity compared with Methaqualone (rat [5])	LD50 at 24 h ([6]; ip)	LD50 at 24 h ([6]; po)	ED50 (mouse [7]; ip, i.p.)	ED50 (mouse [7]; po, p.o.)	ED50 (dose at which 50% of the mice remained asleep at the cut-off point) (mouse [8])
Cc1nc2ccccc2c(=O)n1-c1ccccc1C#N.Cl [2-methyl-3-(o-cyanophenyl)-4(3H)-quinazolone hydrochloride]	570 mg/kg	1600 mg/kg	26.5 mg/kg	23 mg/kg	28 mg/kg	106 mg/kg	much more effective than Methaqualone in the rat	47 mg/kg	very effective oral hypnotic in mouse	112 mg/kg	less toxic	> 300 mg/kg	> 1000 mg/kg	10 mg/kg	9 mg/kg	–
Cc1ccccc1-n1c(C)nc2ccccc2c1=O [Methaqualone, 2-methyl-3-(o-tolyl)-4-quinazolone, reference compound]	550 mg/kg	1700 mg/kg	30 mg/kg	49 mg/kg	48 mg/kg	170 mg/kg	–	81 mg/kg	–	160 mg/kg	–	190 mg/kg	440 mg/kg	21.5 mg/kg	42 mg/kg	25 mg/kg
